Patent US20150174273A1, “IMAGING AND THERAPEUTIC METHODS FOR TREATING PARATHYROID TUMORS” (EMORY UNIVERSITY, priority 2012, published 2015)

How the values were obtained:
[1] = test system: primary human parathyroid cells; experiment: 18F FACBC uptake assay; type: cell-based; conditions: preliminary experiments
Excerpt: BCH is L type transporter inhibitor (2-amino-2-norboranecarboxylic acid), MeAlB is an A type inhibitor (2-[methylamine]isobutric acid), ACS is a multiple amino acid transporter inhibitor (L-alanine, L-cystine, L-serine).
In certain embodiments, the disclosure contemplates methods of ^18F-FACBC Imaging. […] See McConathy et al., Appl Radiat Isot. 2003; 58(6):657-66, hereby incorporated by reference. Parathormone is a peptide hormone, and the bioactive conformation includes a long helical dimer containing leucine residues. […] It is contemplated that parathyroid cells concentrate Anti-^18F-FACBC, and thus Anti-^18F-FACBC can be used as an imaging probe for PET imaging.

[2] = in vivo; cited from earlier work
[3] = test system: FRs on freshly excised, non-cultured human PT adenoma cells; experiment: 99mTc-EC20 uptake by PT adenoma cell slurry with or without cold folate block; type: cell-based; conditions: for 99mTc-EC20 uptake, not blocked: absence of cold folate; for 99mTc-EC20 uptake, blocked: pre-incubation with cold folate (200 μM)
Method: Some aliquots of cells were blocked by pre-incubation with cold folate (FA) (yellow bars).

Row | SMILES | uptake of Anti-18F-FACBC by primary human parathyroid cells [1] | pancreatic concentration [2] | renal excretion [2] | 99mTc-EC20 uptake, not blocked ([3]; 20 μl PT adenoma cell slurry) | 99mTc-EC20 uptake, blocked ([3]; 20 μl PT adenoma cell slurry) | 99mTc-EC20 uptake, not blocked ([3]; 70 μl PT adenoma cell slurry) | 99mTc-EC20 uptake, blocked ([3]; 70 μl PT adenoma cell slurry)
1 | NC1(C(=O)O)CC([18F])C1 (stereo not drawn) [Anti-^18F-FACBC, anti-1-amino-^18F-flurocyclobutane-1 carboxylic acid] | significant specific uptake | high pancreatic concentration | low renal excretion |  |  |  | 
2 | [NH-][C@@H](CNC(=O)CC[C@@H](NC(=O)c1ccc(NCc2cnc3nc(N)[nH]c(=O)c3n2)cc1)C(=O)O)C(=O)[N-][C@@H](CC(=O)O)C(=O)[N-][C@@H](C[S-])C(=O)O.[O]=[Tc+4] [99mTc-EC20] |  |  |  | 3.4±0.4 % dose/20 μl tissue prep | 1.9±0.2 % dose/20 μl tissue prep | 10.9±0.9 % dose/70 μl tissue prep | 5.7±0.3 % dose/70 μl tissue prep
